Results taken from ChEMBL document CHEMBL1159093, “Discovery and optimization of RO-85, a novel drug-like, potent, and selective P2X3 receptor antagonist” (Bioorg Med Chem Lett, 2010).

Experiments:
[1] = biological target: T1, P2X purinoceptor 3 (Rattus norvegicus, UniProt P49654); assay: Antagonist activity at rat P2X3 receptor expressed in CHO cells; type: functional, cell-based
T1 sequence (P49654 whole entry): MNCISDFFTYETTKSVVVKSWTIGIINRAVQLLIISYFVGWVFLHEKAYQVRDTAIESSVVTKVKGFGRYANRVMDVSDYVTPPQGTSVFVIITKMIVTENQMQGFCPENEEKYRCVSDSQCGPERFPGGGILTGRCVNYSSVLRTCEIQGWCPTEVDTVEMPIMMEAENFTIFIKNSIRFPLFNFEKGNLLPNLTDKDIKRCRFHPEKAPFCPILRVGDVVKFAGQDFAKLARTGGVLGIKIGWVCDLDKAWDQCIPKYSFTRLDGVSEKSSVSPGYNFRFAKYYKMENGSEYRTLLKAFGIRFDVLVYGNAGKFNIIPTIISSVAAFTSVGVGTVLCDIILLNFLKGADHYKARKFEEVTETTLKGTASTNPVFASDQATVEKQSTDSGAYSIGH

[2] = biological target: T2, P2X2/P2X3 heterotrimeric receptor (Homo sapiens, UniProt P56373+Q9UBL9); assay: Antagonist activity at human P2X2/P2X3 receptor expressed in human 1321N1C cells; type: functional, cell-based
T2 sequence (Q9UBL9 whole entry): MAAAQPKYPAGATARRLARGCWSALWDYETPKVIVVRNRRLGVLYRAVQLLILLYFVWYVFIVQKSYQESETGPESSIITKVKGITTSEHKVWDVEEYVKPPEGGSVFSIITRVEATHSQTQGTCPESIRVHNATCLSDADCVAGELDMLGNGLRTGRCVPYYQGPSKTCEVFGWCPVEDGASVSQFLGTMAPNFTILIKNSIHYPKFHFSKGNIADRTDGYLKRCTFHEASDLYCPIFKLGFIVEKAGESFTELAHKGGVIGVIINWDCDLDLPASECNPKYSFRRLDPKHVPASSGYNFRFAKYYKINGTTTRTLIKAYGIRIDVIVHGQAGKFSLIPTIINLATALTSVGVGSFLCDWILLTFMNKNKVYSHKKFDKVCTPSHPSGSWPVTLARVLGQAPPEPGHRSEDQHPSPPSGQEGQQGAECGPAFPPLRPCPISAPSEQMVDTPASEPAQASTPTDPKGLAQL
T2 sequence (P56373 whole entry): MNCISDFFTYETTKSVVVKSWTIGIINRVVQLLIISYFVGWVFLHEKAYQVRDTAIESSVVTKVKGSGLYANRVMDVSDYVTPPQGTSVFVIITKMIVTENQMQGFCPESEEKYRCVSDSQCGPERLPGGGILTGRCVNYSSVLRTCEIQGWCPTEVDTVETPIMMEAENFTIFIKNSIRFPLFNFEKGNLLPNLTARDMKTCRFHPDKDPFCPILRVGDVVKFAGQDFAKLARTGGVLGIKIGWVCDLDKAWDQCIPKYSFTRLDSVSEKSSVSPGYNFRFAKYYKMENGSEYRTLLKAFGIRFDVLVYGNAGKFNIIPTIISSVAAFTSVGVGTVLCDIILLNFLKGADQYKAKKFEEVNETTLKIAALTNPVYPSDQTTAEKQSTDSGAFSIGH

[3] = Protein binding in rat plasma; type: ADME, cell-free; conditions: read-out: PPB (converted)
[4] = biological target: Cytochrome P450 3A4 (Homo sapiens, UniProt P08684); assay: Inhibition of CYP3A4; type: ADME
Chain of Cytochrome P450 3A4 (P08684 whole entry): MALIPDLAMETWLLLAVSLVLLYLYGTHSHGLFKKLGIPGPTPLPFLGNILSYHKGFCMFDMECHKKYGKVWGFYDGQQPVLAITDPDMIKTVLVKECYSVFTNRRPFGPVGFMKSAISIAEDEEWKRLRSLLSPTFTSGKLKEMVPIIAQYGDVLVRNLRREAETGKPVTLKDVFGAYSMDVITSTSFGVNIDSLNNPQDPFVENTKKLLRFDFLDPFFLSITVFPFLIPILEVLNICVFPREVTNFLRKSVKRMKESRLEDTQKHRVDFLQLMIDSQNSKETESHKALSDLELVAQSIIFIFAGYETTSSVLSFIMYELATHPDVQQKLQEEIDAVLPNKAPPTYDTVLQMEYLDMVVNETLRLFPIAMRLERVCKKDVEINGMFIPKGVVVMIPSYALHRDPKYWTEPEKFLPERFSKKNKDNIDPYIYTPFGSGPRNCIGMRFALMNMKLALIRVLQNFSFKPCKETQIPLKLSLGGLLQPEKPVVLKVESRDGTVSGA

[5] = biological target: Cytochrome P450 2D6 (Homo sapiens, UniProt P10635); assay: Inhibition of CYP2D6; type: ADME
Chain of Cytochrome P450 2D6 (P10635 whole entry): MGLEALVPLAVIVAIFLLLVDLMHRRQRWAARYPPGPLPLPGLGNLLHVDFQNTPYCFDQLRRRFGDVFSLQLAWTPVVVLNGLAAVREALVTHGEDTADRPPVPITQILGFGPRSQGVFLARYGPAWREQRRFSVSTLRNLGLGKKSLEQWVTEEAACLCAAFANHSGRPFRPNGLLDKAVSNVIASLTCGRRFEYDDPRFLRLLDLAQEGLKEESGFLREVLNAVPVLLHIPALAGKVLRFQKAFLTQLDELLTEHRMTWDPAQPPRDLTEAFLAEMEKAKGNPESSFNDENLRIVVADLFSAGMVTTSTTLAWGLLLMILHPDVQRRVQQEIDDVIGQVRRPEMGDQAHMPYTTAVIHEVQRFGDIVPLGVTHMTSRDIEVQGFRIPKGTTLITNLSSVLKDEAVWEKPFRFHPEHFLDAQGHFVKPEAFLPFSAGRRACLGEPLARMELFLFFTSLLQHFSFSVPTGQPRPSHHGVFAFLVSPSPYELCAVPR

[6] = biological target: P2X purinoceptor 1 (Homo sapiens, UniProt P51575); assay: Antagonist activity at P2X1 receptor; type: functional
Chain of P2X purinoceptor 1 (P51575 whole entry): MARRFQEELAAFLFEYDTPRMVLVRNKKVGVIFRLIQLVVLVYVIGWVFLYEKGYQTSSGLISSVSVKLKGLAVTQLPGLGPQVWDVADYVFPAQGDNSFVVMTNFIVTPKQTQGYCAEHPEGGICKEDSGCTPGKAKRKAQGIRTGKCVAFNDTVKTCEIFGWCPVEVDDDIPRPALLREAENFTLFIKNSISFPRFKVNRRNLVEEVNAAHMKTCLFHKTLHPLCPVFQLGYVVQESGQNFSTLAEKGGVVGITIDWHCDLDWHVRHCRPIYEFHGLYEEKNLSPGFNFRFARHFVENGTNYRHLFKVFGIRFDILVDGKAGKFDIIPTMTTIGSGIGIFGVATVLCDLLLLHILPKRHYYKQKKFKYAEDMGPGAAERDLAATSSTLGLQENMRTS

[7] = biological target: P2X purinoceptor 2 (Homo sapiens, UniProt Q9UBL9); assay: Antagonist activity at P2X2 receptor; type: functional
[8] = biological target: P2X purinoceptor 4 (Homo sapiens, UniProt Q99571); assay: Antagonist activity at P2X4 receptor; type: functional
Chain of P2X purinoceptor 4 (Q99571 whole entry): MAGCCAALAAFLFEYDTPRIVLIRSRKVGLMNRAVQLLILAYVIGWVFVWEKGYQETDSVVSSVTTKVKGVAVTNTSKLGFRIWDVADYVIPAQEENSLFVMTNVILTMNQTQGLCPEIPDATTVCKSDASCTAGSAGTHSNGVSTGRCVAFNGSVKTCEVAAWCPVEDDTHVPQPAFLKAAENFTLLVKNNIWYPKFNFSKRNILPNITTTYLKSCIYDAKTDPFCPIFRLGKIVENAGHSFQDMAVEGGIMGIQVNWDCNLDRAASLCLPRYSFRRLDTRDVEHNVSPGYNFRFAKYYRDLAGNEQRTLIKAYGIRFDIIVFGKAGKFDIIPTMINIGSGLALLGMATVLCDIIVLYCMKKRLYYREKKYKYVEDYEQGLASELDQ

[9] = biological target: P2X purinoceptor 5 (Homo sapiens, UniProt Q93086); assay: Antagonist activity at P2X5 receptor; type: functional
Chain of P2X purinoceptor 5 (Q93086 whole entry): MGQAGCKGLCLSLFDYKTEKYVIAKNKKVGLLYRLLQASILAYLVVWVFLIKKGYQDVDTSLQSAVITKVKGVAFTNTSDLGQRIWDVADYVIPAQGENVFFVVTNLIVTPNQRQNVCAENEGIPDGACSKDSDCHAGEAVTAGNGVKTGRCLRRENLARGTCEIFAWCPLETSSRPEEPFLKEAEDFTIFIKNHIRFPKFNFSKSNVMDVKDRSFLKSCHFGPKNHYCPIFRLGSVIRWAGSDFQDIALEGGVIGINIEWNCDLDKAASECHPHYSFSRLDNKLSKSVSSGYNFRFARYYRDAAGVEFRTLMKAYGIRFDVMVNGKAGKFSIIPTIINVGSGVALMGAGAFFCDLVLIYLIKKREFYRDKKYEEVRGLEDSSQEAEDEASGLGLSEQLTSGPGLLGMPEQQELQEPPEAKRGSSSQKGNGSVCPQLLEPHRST

[10] = biological target: P2X purinoceptor 6 (Homo sapiens, UniProt O15547); assay: Antagonist activity at P2X6 receptor; type: functional
Chain of P2X purinoceptor 6 (O15547 whole entry): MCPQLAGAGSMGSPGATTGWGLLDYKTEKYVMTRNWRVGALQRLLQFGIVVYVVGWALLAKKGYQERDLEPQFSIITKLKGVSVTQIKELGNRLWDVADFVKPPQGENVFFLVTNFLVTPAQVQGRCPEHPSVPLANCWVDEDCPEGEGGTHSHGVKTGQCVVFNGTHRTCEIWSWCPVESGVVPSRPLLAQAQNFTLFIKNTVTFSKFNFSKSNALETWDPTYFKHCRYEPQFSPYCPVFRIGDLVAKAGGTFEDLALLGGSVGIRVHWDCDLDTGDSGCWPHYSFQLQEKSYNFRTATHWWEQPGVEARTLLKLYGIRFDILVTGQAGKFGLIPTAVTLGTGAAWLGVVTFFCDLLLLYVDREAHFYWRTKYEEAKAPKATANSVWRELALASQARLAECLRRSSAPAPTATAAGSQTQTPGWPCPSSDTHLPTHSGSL

[11] = biological target: P2X purinoceptor 7 (Homo sapiens, UniProt Q99572); assay: Antagonist activity at P2X7 receptor; type: functional
Chain of P2X purinoceptor 7 (Q99572 whole entry): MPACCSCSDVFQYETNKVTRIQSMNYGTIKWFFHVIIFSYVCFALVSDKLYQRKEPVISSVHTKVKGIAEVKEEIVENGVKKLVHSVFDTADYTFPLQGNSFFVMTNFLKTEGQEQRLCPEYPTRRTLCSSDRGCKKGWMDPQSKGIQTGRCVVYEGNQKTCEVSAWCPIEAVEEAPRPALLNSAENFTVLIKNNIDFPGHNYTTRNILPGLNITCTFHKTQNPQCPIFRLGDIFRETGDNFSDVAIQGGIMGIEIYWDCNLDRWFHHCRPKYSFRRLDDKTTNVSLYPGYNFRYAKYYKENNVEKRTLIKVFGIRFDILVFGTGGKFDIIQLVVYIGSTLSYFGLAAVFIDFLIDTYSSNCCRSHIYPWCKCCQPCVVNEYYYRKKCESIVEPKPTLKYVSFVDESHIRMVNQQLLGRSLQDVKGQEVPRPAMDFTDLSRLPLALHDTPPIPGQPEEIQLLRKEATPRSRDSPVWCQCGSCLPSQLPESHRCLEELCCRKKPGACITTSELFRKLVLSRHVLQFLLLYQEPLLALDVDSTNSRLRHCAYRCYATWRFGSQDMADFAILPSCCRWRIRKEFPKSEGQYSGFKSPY

| Structure (SMILES) | IC50 [1] [µM] | IC50 [2] [µM] | other results |
| --- | --- | --- | --- |
| CCCc1nc(-c2ccc(F)cc2)oc1C(=O)N(C)CCN1CCN(c2ncccn2)CC1 | > 10 |  |  |
| CC(=O)N1CCN(CC(C)NC(=O)c2cc3c(-c4ccccc4)nn(C)c3s2)CC1 (stereo unspecified) | 0.1 |  |  |
| CC(CN1CCN(c2ncccn2)CC1)NC(=O)c1cc2c(-c3ccccc3F)nn(C)c2s1 (stereo unspecified) | 0.0631 |  |  |
| CCCc1nc(-c2ccc(F)cc2)oc1C(=O)N[C@H](C)CN1CCN(C(N)=O)CC1 | 1 | > 10 |  |
| CC(=O)N1CCN(CC(C)NC(=O)c2cc3c(-c4ccccc4F)nn(C)c3s2)CC1 (stereo unspecified) | 0.0398 |  |  |
| CCCc1nc(-c2ccc(F)cc2)oc1C(=O)N[C@H](C)CN1CCN(c2ccccn2)CC1 | 1.58 | > 10 |  |
| CC(CN1CCN(c2ncccn2)CC1)NC(=O)c1cc(Br)cc(-c2ccc(F)cc2)c1 (stereo unspecified) | 0.501 | > 10 |  |
| CC(CN1CCN(c2ncccn2)CC1)NC(=O)c1cccc(-c2ccc(F)cc2)c1 (stereo unspecified) | 0.126 | > 10 |  |
| CC(CN1CCN(c2ncccn2)CC1)NC(=O)c1oc(-c2ccccc2)cc1-c1ccccc1 (stereo unspecified) | 0.631 | > 10 |  |
| CC(CN1CCN(c2ncccn2)CC1)NC(=O)c1nc(-c2ccccc2)cc(-c2ccccc2)n1 (stereo unspecified) | 5.01 | > 10 |  |
| CCCc1nc(-c2ccc(F)cc2)oc1CNC(C)CN1CCN(c2ncccn2)CC1 (stereo unspecified) | > 10 |  |  |
| CCCc1nc(-c2ccc(F)cc2)oc1COC(C)CN1CCN(c2ncccn2)CC1 (stereo unspecified) | > 10 |  |  |
| CCCc1nc(-c2ccc(F)cc2)oc1C(=O)N[C@H](C)CN1CCN(C(=O)c2ccco2)CC1 | 2.51 | > 10 |  |
| CC(CN1CCN(c2ncccn2)CC1)NC(=O)c1cc(-c2ccccc2)nn1-c1ccccc1 (stereo unspecified) | 1 | > 10 |  |
| CCCc1nc(-c2ccc(F)cc2)oc1C(=O)NC(C)CN1CCCN(c2ncccn2)CC1 (stereo unspecified) | 2.51 |  |  |
| CC(CN1CCN(c2ncccn2)CC1)NC(=O)c1cc(-c2ccccc2)nc(-c2ccccc2)c1 (stereo unspecified) | 1.26 | > 10 |  |
| CCCc1nc(-c2ccc(F)cc2)oc1C(=O)NC(CC)CN1CCN(c2ncccn2)CC1 (stereo unspecified) | > 10 |  |  |
| CCCc1nc(-c2ccc(F)cc2)oc1C(=O)N[C@H](C)CN1CCN(C(=O)OCC)CC1 | > 10 | > 10 |  |
| CCCc1nc(-c2ccc(F)cc2)oc1C(=O)N[C@H](C)CN1CCN(C(C)=O)CC1 | 0.398 | > 10 |  |
| CCCc1nc(-c2ccc(F)cc2)oc1C(=O)NCCN1CCN(c2ncccn2)CC1 | > 10 |  |  |
| CC(CN1CCN(c2ncccn2)CC1)NC(=O)c1cc(-c2ccccc2)n(-c2ccccc2)n1 (stereo unspecified) | 1.26 | > 10 |  |
| CCCc1nc(-c2ccc(F)cc2)oc1C(=O)NC(C)(C)CN1CCN(c2ncccn2)CC1 | > 10 |  |  |
| Cc1c(C(=O)NC(C)CN2CCN(c3ncccn3)CC2)cc(-c2ccccc2)n1-c1ccccc1 (stereo unspecified) | 2 | > 10 |  |
| CCCc1nc(-c2ccc(F)cc2)oc1C(=O)N[C@H](C)CN1CCN(C(=O)C2CC2)CC1 | > 10 | > 10 |  |
| Cc1ccccc1-c1nn(C)c2sc(C(=O)NC(C)CN3CCN(c4ncccn4)CC3)cc12 (stereo unspecified) | 2 |  |  |
| CC(CN1CCN(c2ncccn2)CC1)NC(=O)c1cc(-c2ccccc2)oc1-c1ccccc1 (stereo unspecified) | 2 | > 10 |  |

| Structure (SMILES) | IC50 [1] [µM] | IC50 [2] [µM] | other results |
| --- | --- | --- | --- |
| CCn1nc(-c2ccccc2)c2cc(C(=O)NC(C)CN3CCN(c4ncccn4)CC3)sc21 (stereo unspecified) | 0.501 |  |  |
| CCCc1nc(-c2ccc(F)cc2)oc1C(=O)NC(C)CN1CCN(c2nccs2)CC1 (racemic) | 0.631 | > 10 |  |
| Cc1nn(-c2ccccc2)c2sc(C(=O)NC(C)CN3CCN(c4ncccn4)CC3)cc12 (stereo unspecified) | 10 |  |  |
| CC(CN1CCN(c2ncccn2)CC1)N1Cc2c(c(-c3ccccc3)nn2-c2ccc(F)cc2)C1=O (stereo unspecified) | > 10 |  |  |
| CC(CN1CCN(c2ncccn2)CC1)NC(=O)c1nc(-c2ccccc2)oc1-c1ccccc1 (stereo unspecified) | 3.98 | > 10 |  |
| CCCc1nc(-c2ccc(F)cc2)oc1C(=O)N[C@H](C)CN1CCN(c2ccncc2)CC1 | > 10 | > 10 |  |
| CCCc1nc(-c2ccc(F)cc2)oc1C(=O)NC(C)CN1CCN(c2ccccn2)CC1 (racemic) | > 10 | > 10 |  |
| CCCc1nc(-c2ccc(F)cc2)oc1C(=O)NC(C)CN1CCN(C(C)=S)CC1 (racemic) | 0.1 | > 10 |  |
| Cc1c(C(=O)NC(C)CN2CCN(c3ncccn3)CC2)c(-c2ccccc2)nn1-c1ccccc1 (stereo unspecified) | > 10 | > 10 |  |
| CC(CN1CCN(c2ncccn2)CC1)NC(=O)c1oc(-c2ccccc2)nc1-c1ccccc1 (stereo unspecified) | 1.26 | > 10 |  |
| CC(CN1CCN(c2ncccn2)CC1)NC(=O)c1cc(-c2ccc(F)cc2)cc(-c2ccc(F)cc2)c1 (stereo unspecified) | 0.398 | > 10 |  |
| CCCc1nc(-c2ccc(F)cc2)oc1C(=O)N[C@H](C)CN1CCN(c2ccncn2)CC1 | 1.26 | > 10 |  |
| CCCc1nc(-c2ccc(F)cc2)oc1C(=O)N[C@H](C)CN1CCN(C(=O)NC)CC1 | > 10 | > 10 |  |
| CC(CN1CCN(c2ncccn2)CC1)NC(=O)c1cc2c(-c3ccccc3)nn(-c3ccccc3)c2s1 (stereo unspecified) | > 10 |  |  |
| CC(=O)N1CCN(CC(C)NC(=O)c2cc3c(-c4ccc(C)cc4)nn(C)c3s2)CC1 (stereo unspecified) | 0.0398 |  |  |
| CC(CN1CCN(c2ncccn2)CC1)NC(=O)c1cc2c(-c3ccccc3)nn(C)c2s1 (stereo unspecified) | 0.2 | > 10 |  |
| CC(CN1CCN(c2ncccn2)CC1)NC(=O)c1cc2c(-c3ccccc3)nn(C)c2o1 (stereo unspecified) | > 10 |  |  |
| CCCc1nc(-c2ccc(F)cc2)oc1C(=O)N[C@H](C)CN1CCN(c2ncccn2)CC1 | 0.0501 | > 10 |  |
| CCCc1nc(-c2ccccc2)oc1C(=O)NC(C)CN1CCN(c2ncccn2)CC1 (stereo unspecified) | 0.251 | > 10 | fraction unbound [3]: < 0.01; IC50 [4]: < 10 µM; IC50 [5]: < 10 µM; IC50 [6]: > 10 µM; IC50 [7]: > 10 µM; IC50 [8]: > 10 µM; IC50 [9]: > 10 µM; IC50 [10]: > 10 µM; IC50 [11]: > 10 µM |
| CC(CN1CCN(c2ncccn2)CC1)NC(=O)c1sc(-c2ccccc2)nc1-c1ccccc1 (stereo unspecified) | > 10 | > 10 |  |
| CCCc1cc(C(=O)NC(C)CN2CCN(c3ncccn3)CC2)cc(-c2ccc(F)cc2)c1 (stereo unspecified) | 0.501 | > 10 |  |
| CCCc1nc(-c2ccc(F)cc2)oc1C(=O)N[C@H](C)CN1CCN(S(C)(=O)=O)CC1 | > 10 | > 10 |  |
| CCCc1nc(-c2ccc(F)cc2)oc1C(=O)N[C@@H](C)CN1CCN(c2ncccn2)CC1 | 2 | > 10 |  |
| CC(CN1CCN(c2ncccn2)CC1)NC(=O)c1cn(-c2ccccc2)nc1-c1ccccc1 (stereo unspecified) | 1 | > 10 |  |
| CCCc1nc(-c2ccc(F)cc2)oc1C(=O)N[C@H](C)CN1CCN(c2cnccn2)CC1 | 0.501 | > 10 |  |
| Cc1nc(-c2ccccc2)oc1C(=O)NC(C)CN1CCN(c2ncccn2)CC1 (stereo unspecified) | 5.01 | > 10 |  |
